According to ChEMBL document CHEMBL1681653, “Synthesis of N-alkylated noeurostegines and evaluation of their potential as treatment for Gaucher's disease” (Bioorg Med Chem Lett, 2011):
Changes are numbered by the printed parent chain. One block for each compound: values may come before it. Activity calls are given as the source filed them. No cut-off for these calls is given here.

Assays:
[1] = tested on: T1, Lysosomal acid glucosylceramidase (Homo sapiens), P04062 [N409S]; assay: Activation of beta-glucocerebrosidase in human N370S cells assessed as increase of residual activity at 0.05 to 100 uM after 3 days; type: cell-based
T1 sequence (whole entry): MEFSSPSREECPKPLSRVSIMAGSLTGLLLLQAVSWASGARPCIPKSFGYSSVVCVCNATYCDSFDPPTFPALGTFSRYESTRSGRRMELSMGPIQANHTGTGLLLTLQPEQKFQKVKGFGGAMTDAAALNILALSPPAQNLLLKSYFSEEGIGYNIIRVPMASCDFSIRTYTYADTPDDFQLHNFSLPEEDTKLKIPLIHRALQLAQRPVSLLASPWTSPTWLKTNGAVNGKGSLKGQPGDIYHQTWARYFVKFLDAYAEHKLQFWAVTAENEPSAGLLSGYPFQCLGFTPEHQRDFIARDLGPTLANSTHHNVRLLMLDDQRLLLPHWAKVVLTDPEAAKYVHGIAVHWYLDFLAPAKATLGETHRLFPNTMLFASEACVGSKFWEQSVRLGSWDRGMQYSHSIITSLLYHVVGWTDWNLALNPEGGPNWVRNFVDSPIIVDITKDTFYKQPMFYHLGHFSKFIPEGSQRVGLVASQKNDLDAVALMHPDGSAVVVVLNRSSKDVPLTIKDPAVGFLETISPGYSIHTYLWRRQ

[2] = target: T2, Lysosomal acid glucosylceramidase (Homo sapiens, UniProt P04062); assay: Inhibition of partially purified human placental beta-glucocerebrosidase after 15 to 60 mins
T2 sequence (P04062 whole entry): T1 sequence (whole entry) with S409N

Rattus norvegicus [3] = organism: Rattus norvegicus; assay: Inhibition of rat liver alpha-glucosidase 2 assessed as conversion of Glc2Man7GlcNAc2 to Glc1Man7GlcNAc2 at 100 uM after 1.25 hrs
[4] = target: T3, Neutral alpha-glucosidase AB (Homo sapiens) (UniProt Q14697); assay: Inhibition of endoplasmic reticulum alpha-glucosidase 2 in human HL-60 cells assessed as free oligosaccharide level at 50 uM after 24 hrs; type: cell-based
T3 sequence (whole entry): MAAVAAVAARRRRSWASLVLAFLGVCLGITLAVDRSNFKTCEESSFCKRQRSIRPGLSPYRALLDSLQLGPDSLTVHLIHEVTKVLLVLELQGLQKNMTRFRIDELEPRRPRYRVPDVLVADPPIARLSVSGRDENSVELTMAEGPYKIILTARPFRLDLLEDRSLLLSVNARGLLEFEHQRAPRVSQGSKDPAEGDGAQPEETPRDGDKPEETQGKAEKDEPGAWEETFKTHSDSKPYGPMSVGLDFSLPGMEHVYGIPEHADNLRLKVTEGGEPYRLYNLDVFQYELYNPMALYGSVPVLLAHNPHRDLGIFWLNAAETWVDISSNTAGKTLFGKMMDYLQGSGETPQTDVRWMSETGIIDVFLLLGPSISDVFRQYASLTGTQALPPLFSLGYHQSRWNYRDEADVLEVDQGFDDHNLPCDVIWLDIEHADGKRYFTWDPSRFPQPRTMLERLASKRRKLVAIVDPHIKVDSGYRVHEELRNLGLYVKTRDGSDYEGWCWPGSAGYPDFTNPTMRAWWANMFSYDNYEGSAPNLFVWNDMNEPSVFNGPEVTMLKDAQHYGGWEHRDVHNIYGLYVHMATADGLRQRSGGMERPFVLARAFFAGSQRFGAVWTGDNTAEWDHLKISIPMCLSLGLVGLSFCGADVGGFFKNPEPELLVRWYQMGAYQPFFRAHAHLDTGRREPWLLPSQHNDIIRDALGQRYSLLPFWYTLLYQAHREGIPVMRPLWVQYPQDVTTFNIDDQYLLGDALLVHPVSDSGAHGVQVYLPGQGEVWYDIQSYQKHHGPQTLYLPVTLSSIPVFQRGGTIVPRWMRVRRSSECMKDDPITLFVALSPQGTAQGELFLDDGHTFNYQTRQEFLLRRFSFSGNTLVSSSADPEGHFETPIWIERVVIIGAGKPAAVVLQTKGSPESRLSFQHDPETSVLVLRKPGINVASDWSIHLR

Rattus norvegicus [5] = organism: Rattus norvegicus; assay: Inhibition of rat liver alpha-glucosidase 2 assessed as conversion of Glc2Man7GlcNAc2 to Man7GlcNAc2 at 100 uM after 1.25 hrs
HL-60 [6] = assay: Inhibition of endoplasmic reticulum alpha-glucosidase 1 in human HL-60 cells assessed as free oligosaccharide level at 50 uM after 24 hrs; type: cell-based
[7] = tested on: T1, Lysosomal acid glucosylceramidase (Homo sapiens), P04062 [N409S]; assay: Activation of beta-glucocerebrosidase in human N370S cells assessed as increase of residual activity at 0.05 to 100 uM after 3 days relative to control; type: cell-based
Rattus norvegicus [8] = organism: Rattus norvegicus; assay: Inhibition of rat liver alpha-glucosidase 2 assessed as conversion of Glc2Man7GlcNAc2 to Glc1Man7GlcNAc2 at 500 uM after 1.25 hrs
Rattus norvegicus [9] = organism: Rattus norvegicus; assay: Inhibition of rat liver alpha-glucosidase 2 assessed as conversion of Glc2Man7GlcNAc2 to Man7GlcNAc2 at 500 uM after 1.25 hrs
HL-60 [10] = assay: Inhibition of endoplasmic reticulum alpha-glucosidase 1 in human HL-60 cells assessed as free oligosaccharide level at 500 uM after 24 hrs; type: cell-based
[11] = target: T3, Neutral alpha-glucosidase AB (Homo sapiens); assay: Inhibition of endoplasmic reticulum alpha-glucosidase 2 in human HL-60 cells assessed as free oligosaccharide level at 500 uM after 24 hrs; type: cell-based

SMILES: CCCCN1[C@@H]2CC[C@@]1(O)[C@@H](O)[C@H](O)[C@H]2CO
Activity [1]: inactive
IC50 [2]: 100 µM

Activity [1]: inactive
IC50 [2]: 60 µM
SMILES: CCCCCCCCCN1[C@@H]2CC[C@@]1(O)[C@@H](O)[C@H](O)[C@H]2CO

inhibition (Rattus norvegicus [3]): Active
inhibition [4]: Active
inhibition (Rattus norvegicus [5]): Active
SMILES: CCCCN1C[C@H](O)[C@@H](O)[C@H](O)[C@H]1CO
inhibition (HL-60 [6]): Active

SMILES: O[C@@H]1[C@@H](O)[C@H](O)[C@]2(O)CC[C@H]1N2 [CALYSTEGINE B2]
IC50 [2]: 1 µM

SMILES: OC[C@@H]1[C@@H](O)[C@H](O)[C@]2(O)CC[C@H]1N2 [NOEUROSTEGINE]
fold change (FC) [7]: 1.82
inhibition (Rattus norvegicus [8]): inactive
inhibition (Rattus norvegicus [9]): inactive
inhibition (HL-60 [10]): inactive
inhibition [11]: inactive
IC50 [2]: 0.4 µM
